Assay results taken from article PMC6149849, “Cymantrenyl-Nucleobases: Synthesis, Anticancer, Antitrypanosomal and Antimicrobial Activity Studies” (Molecules : A Journal of Synthetic Chemistry and Natural …, 2017).
Where two headings read alike, the source gives them in different places.

Columns and labels:
[1] = tested on: S. aureus ATCC 700787 (VISA); test: Antibacterial liquid microdilution (CLSI M07-A8); format: cell-based, Staphylococcus aureus; settings: 18 to 24 h
Experimental: (§1) Organometallic compounds play an increasingly important role in the search for new antibacterial agents. We, therefore, thought to investigate also the bactericidal activity of the newly synthesized cymantrenes 1–7, compound C and CymH. The antibacterial activity of the compounds was tested against Gram-positive methicillin-sensitive Staphylococcus aureus (MSSA), methicillin-resistant S. aureus (MRSA), vancomycin-intermediate S. aureus (VISA), S. epidermidis, and Gram-negative Escherichia coli bacterial strains, and expressed as minimal inhibitory concentration (MIC) values (Table 3).
(§2) The antibacterial activity of CymH, 1–7 and C and the reference drugs penicillin G and polymyxin B was tested by the liquid microdilution method under standard conditions using twofold dilution series, as described in the Clinical and Laboratory Standards Institute (CLSI), reference method M07-A8, and expressed as minimal inhibitory concentration (MIC) values. A panel of Gram-positive bacterial strains, S. aureus ATCC® 29213 (sensitive to methicillin, (MSSA)), S. aureus ATCC® 43300 (resistant to methicillin, (MRSA)), S. aureus ATCC 700787™ (intermediate to vancomycin, (VISA)), and S. epidermidis ATCC 12228™, and one Gram-negative, strain E. coli ATCC BAA-198™ (ESBL) were used. In addition, four clinical isolates of S. aureus (MSSA and MRSA) and two clinical isolates of S. epidermidis that were collected from different patients at the Medical University of Warsaw, Poland, were also tested. The bacterial cells were cultivated on tryptic soy agar (TSA) and nutrient agar (NA), according to ATCC recommendations. All of the strains were incubated at 37 °C. Tested compounds were dissolved in DMSO and then serially diluted twofold with cation-adjusted Mueller-Hinton broth (CAMHB). Then, 95 µL of the dilutions were dispensed into microdilution sterile plates (Mar-Four), followed by the addition of 5 µL of bacteria inoculum containing 5 × 10^4 CFU/mL. The final concentrations of the compounds ranged from 512 to 2 µg/mL. Each compound was tested in triplicate, and Penicillin G (8–0.15 µg/mL) and Polymyxin B (256–0.0625 µg/mL) were used as controls. The plates were incubated at 37 °C for 18 to 24 h depending on the bacterial strain. Thereafter, the absorbance was measured at λ = 540 nm and λ = 595 nm using a Spectrostar Omega microplate reader (BMG Labtech, Offenburg, Germany). The MIC value was defined as the lowest concentration of a compound that reduced the growth by 100%.

[2] = tested on: S. aureus ATCC 43300 (MRSA); test: Antibacterial liquid microdilution (CLSI M07-A8); format: cell-based, Staphylococcus aureus; settings: 18 to 24 h
Experimental: as §1, §2

[3] = tested on: S. aureus ATCC 29213 (MSSA); test: Antibacterial liquid microdilution (CLSI M07-A8); format: cell-based, Staphylococcus aureus; settings: 18 to 24 h
Experimental: as §1, §2

[4] = tested on: MCF-7 (hormone-responsive breast adenocarcinoma); test: MTT cytotoxicity assay, MCF-7; format: cell-based, human
Experimental: (§6) Anticancer activity of cymantrenes was determined using a panel of human cancer cell lines that were derived from solid tumors. […] The inhibitory effect of cymantrene derivatives on cell proliferation and growth was determined based on survival curves and was expressed as IC50 values (concentration required to achieve a 50% decrease in cell viability when compared to the viability of untreated control cells) calculated using GraphPad Prism 4.02 software for Windows (GraphPad Software, San Diego, CA, USA). Cell viability was determined by the MTT microplate spectrophotometric cytotoxicity test.
(§7) The cytotoxicity of cymantrene derivatives was evaluated by the MTT microplate methods as described elsewhere [67] by incubating the cells with increasing concentrations of tested compounds for 24 h. Briefly, 0.1 mL of logarithmically growing cells were seeded in a 96-well microplate (5 × 10^4 cells/well) a day before the experiments and after 24 h of culture, tested compounds, dissolved in DMSO, and diluted in culture medium, were added. […] After further incubation for 24 h, the medium was replaced with fresh medium and the cells were allowed to grow for additional 48 h. Then, the medium was aspirated and 0.05 mL of MTT (final concentration of 5 mg/mL medium) added to each well, and the cells were incubated for further 4 h. The absorbance of the product, resulting from the MTT reduction, was read with a microplate reader at 545 nm. The percentage of viable cells was calculated by comparing the absorbance of treated cells with that of the untreated control cells (taken as 100%). The IC50 concentration of each compound was calculated from the cell survival curves using GraphPad Prism 4.02 software for Windows (GraphPad Software, San Diego, CA, USA).

[5] = tested on: MDA-MB-231 (triple negative breast adenocarcinoma); test: MTT cytotoxicity assay, MDA-MB-231; format: cell-based, human
Experimental: as §6, §7

[6] = tested on: E. coli ATCC BAA-198 (ESBL); test: Antibacterial liquid microdilution (CLSI M07-A8); format: cell-based, Escherichia coli; settings: 18 to 24 h
Experimental: as §1, §2

[7] = tested on: SKOV-3 (ovarian adenocarcinoma); test: MTT cytotoxicity assay, SKOV-3; format: cell-based, human
Experimental: as §6, §7

[8] = tested on: human myeloid leukemia HL-60 cells; test: in vitro
Experimental: (§3) All of the cultures were maintained at 37 °C in a humidified atmosphere containing 5% of CO2. Toxicity assays were performed, as previously described, with some modifications. In brief, trypanosomes and HL-60 cells were seeded at an initial cell density of 10^4/mL and 5 × 10^4/mL, respectively, in 96-well plates in a final volume of 200 μL culture medium containing various concentrations of test compounds dissolved in 100% DMSO. […] The controls contained DMSO alone. In all of the experiments, the final DMSO concentration was 0.9%. After 24 h incubation, 20 µL of a 0.5 mM resazurin solution prepared in PBS was added and the cultures were incubated for a further 48 h. Resazurin is a vital dye that, when being reduced by living cells, changes its colour from blue to pink. Thus, by measuring absorbance, the proliferation of cells can be easily determined. The change in absorbance was read with a microplate reader using a test wavelength of 570 nm and a reference wavelength of 630 nm. GI50 values were calculated by linear interpolation according to the method described by Huber and Koella. MIC values were determined microscopically.

SKOV-3 cells [9] = test: Apoptotic/necrotic cell death, Hoechst 33258/propidium iodide staining, fluorescence microscopy; format: cell-based, human; settings: for increase of apoptotic cells compared to untreated control cells: SKOV-3, 24 h treatment with IC50 concentrations, post-treatment 24 and 48 h
Experimental: (§4) To determine the mode of cell death that was triggered by cymantrene derivatives, appropriately stained SKOV-3 cells were evaluated for morphological changes using fluorescence microscopy. For evaluation of apoptosis and autophagy, cells were stained with Hoechst 33258/propidium iodide to distinguish between live, apoptotic and necrotic cells and reveal condensed chromatin and apoptotic bodies (a hallmark of apoptosis), and with acridine orange to detect the development of acidic vesicular organelles (AVOs—a hallmark of autophagy).
(§5) One day prior to the experiments, cells were seeded at the appropriate density into 35 mm diameter dishes. […] At the end of incubation, the medium was aspirated, the cell monolayer was washed twice with pre-warmed PBS, and fresh medium was added. The cells were cultured in drug-free medium for an additional 24 or 48 h to enable them to recover after the exposure to the compounds and to repair any induced damages.
Quantitative analysis of morphological changes that are associated with apoptosis, necrosis, and autophagy were assessed using a fluorescence microscope (Olympus IX70, Tokyo, Japan) at 400× magnification, as described elsewhere. At the indicated time points, cells were washed with PBS, trypsinized, and centrifuged at 1000 rpm (fixed angle rotor, 72× g) for 5 min at 37 °C. The supernatant was removed and the cell pellet (100 µL) was transferred to the Eppendorf tube, mixed with Ho33258 (2 µL, 0.13 mM) and PI (2 µL, 0.23 mM), and incubated for 5 min in the dark at room temperature. At least 300 stained cells were counted in triplicate in each of the three independent experiments. Cells were classified as live, apoptotic, or necrotic on the basis of their morphological and staining characteristics, and each fraction was related to the total cell number.

[10] = tested on: HepG2 (hepatocellular carcinoma); test: MTT cytotoxicity assay, HepG2; format: cell-based, human
Experimental: as §6, §7

[11] = tested on: S. epidermidis ATCC 12228; test: Antibacterial liquid microdilution (CLSI M07-A8); format: cell-based, Staphylococcus epidermidis; settings: 18 to 24 h
Experimental: as §1, §2

SKOV-3 cells [12] = test: Autophagy (acidic vesicular organelles, AVOs), acridine orange staining; format: cell-based, human; settings: SKOV-3, IC50 concentrations 24 h, then 0, 24 or 48 h drug-free
Experimental: as §4, §5
The ability of tested compounds to induce autophagosome formation inside cells (the process associated with the induction of autophagy) was evaluated by microscopic examination of the morphology of cells stained with acridine orange (AO).

[13] = tested on: bloodstream forms of T. brucei clone 427-221a; test: Trypanocidal assay, resazurin viability assay; format: cell-based, Trypanosoma brucei
Experimental: as §3

U87-MG (glioblastoma) = test: MTT cytotoxicity assay, U87-MG; format: cell-based, human
Experimental: as §6, §7

[14] = tested on: bloodstream forms of T. brucei clone 427-221a; settings: cited from earlier work
[15] = tested on: A549 (non-small cell lung carcinoma); test: MTT cytotoxicity assay, A549
Experimental: Anticancer activity of cymantrenes was determined using a panel of human cancer cell lines that were derived from solid tumors. These included cell lines of estrogen-responsive, doxorubicin resistant, and triple negative breast adenocarcinomas (MCF-7, MCF-7/DX, and MDA-MB-231), ovarian adenocarcinoma (SKOV-3), non-small cell lung carcinoma (A549), hepatocellular carcinoma (HepG2), and glioblastoma (U-87 MG). The inhibitory effect of cymantrene derivatives on cell proliferation and growth was determined based on survival curves and was expressed as IC50 values (concentration required to achieve a 50% decrease in cell viability when compared to the viability of untreated control cells) calculated using GraphPad Prism 4.02 software for Windows (GraphPad Software, San Diego, CA, USA). Cell viability was determined by the MTT microplate spectrophotometric cytotoxicity test.
Anticancer activity of cymantrene derivetives were determined on the basis of their cytotoxic effects on a panel of human cancer cells, as derived from different types of solid tumors: estrogen responsive breast adenocarcinoma (MCF-7), triple negative breast adenocarcinoma (MDA-MB-231), ovarian adenocarcinoma (SKOV-3), non-small cell lung carcinoma (A549), hepatocellular carcinoma (HepG2), and glioblastoma (U-87 MG). Additionally, doxorubicin resistant breast adenocarcinoma cells (MCF-7/Dox) were also included for comparison. All of the cell lines were purchased from American Type Culture Collection (ATCC, Rockville, MD, USA), except the MCF-7/dox cell line, which was a generous gift from Professor Malgorzata Latocha from the Department of Cell Biology, Medical University of Silesia in Katowice, Poland.
Cells were grown as a monolayer in DMEM growth medium, supplemented with 10% FBS, penicillin (10 U/mL) and streptomycin (50 μg/mL), under standard conditions (37 °C, 5% CO2 and 95% air, 100% humidity) and periodically checked for Mycoplasma contamination.
The cytotoxicity of cymantrene derivatives was evaluated by the MTT microplate methods as described elsewhere by incubating the cells with increasing concentrations of tested compounds for 24 h. Briefly, 0.1 mL of logarithmically growing cells were seeded in a 96-well microplate (5 × 10^4 cells/well) a day before the experiments and after 24 h of culture, tested compounds, dissolved in DMSO, and diluted in culture medium, were added. […] After further incubation for 24 h, the medium was replaced with fresh medium and the cells were allowed to grow for additional 48 h. Then, the medium was aspirated and 0.05 mL of MTT (final concentration of […] medium) added to each well, and the cells were incubated for further 4 h. The absorbance of the product, resulting from the MTT reduction, was read with a microplate reader at 545 nm. The percentage of viable cells was calculated by comparing the absorbance of treated cells with that of the untreated control cells (taken as 100%). The IC50 concentration of each compound was calculated from the cell survival curves using GraphPad Prism 4.02 software for Windows (GraphPad Software, San Diego, CA, USA).

[16] = tested on: human myeloid leukemia HL-60 cells; settings: cited from earlier work
[17] = tested on: MCF-7/DX (estrogen-responsive breast adenocarcinoma resistant to doxorubicin); test: cells; format: cell-based, human
Experimental: as §7

SMILES	IC50 [4] [µM]	IC50 [5] [µM]	IC50 [7] [µM]	increase of apoptotic cells compared to untreated control cells (SKOV-3 cells [9])	IC50 [10] [µM]	induction of autophagy (cells containing AVOs) (SKOV-3 cells [12])	IC50 (U87-MG (glioblastoma)) [µM]	GI50 [14] [µM]	T. brucei MIC [14] [µM]	GI50 [16] [µM]	also measured
O=c1[nH]c(=O)n(CCC(O)[C]23[CH]4[CH]5[CH]6[CH]2[Mn]5643)cc1F.[C-]#[O+].[C-]#[O+].[C-]#[O+] (racemic) [Compound 2]	119 ± 2.97	> 150	97.5 ± 2.87	11 fold	> 150	greatest autophagic changes	100 ± 1.01				MIC, S. aureus ATCC 700787 (VISA) [1]: >512 µg/mL; MIC, S. aureus ATCC 43300 (MRSA) [2]: >512 µg/mL; MIC, S. aureus ATCC 29213 (MSSA) [3]: >512 µg/mL; MIC, E. coli ATCC BAA-198 [6]: >512 µg/mL; GI50 [8]: > 100 µM; HL-60 MIC [8]: >100 µM; apoptotic cell fraction predominantly increased (SKOV-3 cells [9]; SKOV-3, IC50 concentrations): late-apoptotic cell fraction; MIC, S. epidermidis ATCC 12228 [11]: >512 µg/mL; GI50 ([13]; 50% growth inhibition): > 100 µM; MIC ([13]; concentration at which all cells were killed, determined microscopically): >100 µM
Nc1ncnc2c1ncn2CCC(O)[C]12[CH]3[CH]4[CH]5[CH]1[Mn]4532.[C-]#[O+].[C-]#[O+].[C-]#[O+] (racemic) [Compound B]	> 150	> 150	> 150	only a three-fold increase	> 150	Less induction of autophagy	> 150	30.8 ± 3.5	>100	> 100	Selectivity GI50 Ratio ([14]; HL-60 / T. brucei): >3.2; IC50 [15]: > 150 µM
NCCCC(N)(C(=O)O)C(F)F (stereo not shown) [DFMO, difluoromethylornithine, reference compound]								23.9	>125		
COc1cccc2c1C(=O)c1c(O)c3c(c(O)c1C2=O)C[C@@](O)(C(=O)CO)C[C@@H]3O[C@H]1C[C@H](N)[C@H](O)[C@H](C)O1 [DOX, doxorubicin, reference compound]											IC50 ([4]; Homo sapiens, MCF7, 24 h, read-out: cytotoxicity IC50, MCF-7): 0.439 ± 0.026 µM; IC50 ([5]; Homo sapiens, MDA-MB-231, 24 h, read-out: cytotoxicity IC50, MDA-MB-231): 1.07 ± 0.062 µM; IC50 ([7]; Homo sapiens, SK-OV-3, 24 h, read-out: cytotoxicity IC50, SKOV-3): 0.858 ± 0.044 µM; IC50 ([10]; Homo sapiens, HepG2, 24 h, read-out: cytotoxicity IC50, HepG2): 0.569 ± 0.021 µM; IC50 (U87-MG (glioblastoma); Homo sapiens, U-87 MG, 24 h, read-out: cytotoxicity IC50, U87-MG): 0.61 ± 0.029 µM; IC50 ([17]; Homo sapiens, MCF7/DX, 24 h, read-out: cytotoxicity IC50, MCF-7/DX): 48.5 ± 2.78 µM; fold less effective against MCF-7/DX cells than MCF-7 cells ([17]; MCF-7/DX vs MCF-7): ~100 fold; IC50 ([15]; Homo sapiens, A549, 24 h, read-out: cytotoxicity IC50, A549): 0.3 ± 0.018 µM
O=C(CCn1ccc(=O)[nH]c1=O)[C]12[CH]3[CH]4[CH]5[CH]1[Mn]4532.[C-]#[O+].[C-]#[O+].[C-]#[O+] (stereo not shown) [non-fluorinated counterpart]								3.6	100	> 100	HL-60 MIC [16]: > 100 µM
